Test results from patent publication US20120196791A1, “COMBINATION THERAPIES USING ANTIBACTERIAL AMINOGLYCOSIDE COMPOUNDS” (Achaogen, Inc., priority 2009, published 2012).
Where two headings read alike, the source gives them in different places.

Assays:
[1] = tested on: P. aeruginosa strains; assay: MIC by macrodilution; type: cell-based; details: Pseudomonas aeruginosa
Source text: (§1) “MIC”, which stands for minimum inhibitory concentration, refers to that concentration, in μg/mL, of a compound of this invention that inhibits the growth and/or proliferation of a strain of bacteria by at least 80% compared to an untreated control as determined by visual inspection of a liquid culture.
Synergy time-kill was used to test the activity of Example 1, alone and in combination with cefepime, doripenem, imipenem and piperacillin/tazobactam, against 10 P. aeruginosa strains. The 10 clinical isolates included 5 cefepime resistant, 5 doripenem resistant, 8 imipenem resistant, and 9 piperacillin/tazobactam resistant strains. MICs were determined by macrodilution and time-kill was used to verify the activity of all five agents alone. MICs were predetermined by macrodilution in cation-adjusted Mueller-Hinton broth (BBL Microbiology Systems, Cockeysville, Md.) according to standard methodology. All strains were tested by time-kill methodology with each compound alone according to standard methods. Strains were examined by PCR for genes encoding aminoglycoside modifying enzymes (AMEs). Cultures were initiated by adding 35-μL aliquots of suspensions into 5 mL of broth. Viability counts (100-μL aliquots) in synergy tests were performed at 0, 3, 6, 12, and 24 h in a shaking water bath at 35° C. with final inocula of between 5×10^5 and 5×10^6 CFU/mL. Only plates with 30 to 300 colonies were counted.

[2] = tested on: S. aureus strains; assay: MIC by macrodilution; type: cell-based; details: Staphylococcus aureus
Source text: as §1
Synergy time-kill was used to test the activity of Example 1, alone and in combination with daptomycin (DAP), ceftobiprole (BPR), and linezolid (LZD), against 25 S. aureus strains. 25 clinical isolates included 2 hVISA, 2 VISA, and 5 VRSA, 10 hospital acquired and 6 community acquired MRSA strains. MICs were determined by macrodilution and time-kill was used to verify the activity of all four agents alone. MICs were predetermined by macrodilution in cation-adjusted Mueller-Hinton broth (BBL Microbiology Systems, Cockeysville, Md.) according to standard methodology. Daptomycin susceptibility testing was performed in Mueller-Hinton broth adjusted to 50 μg/mL of calcium according to standard methodology. All strains were tested by time-kill methodology with each compound alone according to standard methods. Cultures were initiated by adding 35-μL aliquots of suspensions into 5 mL of broth. Viability counts (100-μL aliquots) in synergy tests were performed at 0, 3, 6, 12, and 24 h in a shaking water bath at 35° C. with final inocula of between 5×10^5 and 5×10^6 CFU/mL. Only plates with 30 to 300 colonies were counted.

[3] = ATCC 33591 / MRSA, Strain 13, ATCC33591 HA-MRSA, read-out: MIC
[4] = MRSA, Strain 6, CA-MRSA, PVL+, read-out: MIC
[5] = MRSA, Strain 7, CA-MRSA, PVL+, read-out: MIC
[6] = MRSA, Strain 8, CA-MRSA, PVL+, read-out: MIC
[7] = MRSA, Strain 14, HA-MRSA, read-out: MIC
[8] = MRSA, Strain 15, HA-MRSA, read-out: MIC
[9] = MRSA, Strain 16, HA-MRSA, read-out: MIC
[10] = MRSA, Strain 17, HA-MRSA, read-out: MIC
[11] = MRSA, Strain 18, HA-MRSA, read-out: MIC
[12] = MRSA, Strain 19, HA-MRSA, read-out: MIC
[13] = MRSA, Strain 20, HA-MRSA, read-out: MIC
[14] = MRSA, Strain 21, HA-MRSA, read-out: MIC
[15] = MRSA, Strain 22, HA-MRSA, read-out: MIC
[16] = MRSA, Strain 23, CA-MRSA PVL+, read-out: MIC
[17] = MRSA, Strain 24, CA-MRSA PVL+, read-out: MIC
[18] = MRSA, Strain 25, CA-MRSA PVL neg, read-out: MIC
[19] = Strain 10, hVISA, read-out: MIC
[20] = VISA, Strain 11, VISA, read-out: MIC
[21] = VISA, Strain 12, VISA, read-out: MIC
[22] = VRSA, Strain 1, VRSA, read-out: MIC
[23] = VRSA, Strain 2, VRSA, read-out: MIC
[24] = VRSA, Strain 3, VRSA, read-out: MIC
[25] = VRSA, Strain 4, VRSA, read-out: MIC
[26] = VRSA, Strain 5, VRSA, read-out: MIC
[27] = range over 25 S. aureus strains, read-out: MICs of each agent alone

MIC [2, 3] | MIC [2, 4] | MIC [2, 5] | MIC [2, 6] | MIC [2, 7] | MIC [2, 8] | MIC [2, 9] | MIC [2, 10] | MIC [2, 11] | MIC [2, 12] | MIC [2, 13] | MIC [2, 14] | MIC [2, 15] | MIC [2, 16] | MIC [2, 17] | MIC [2, 18] | MIC ([2]; Strain 9, hVISA, read-out: MIC) | MIC [2, 19] | MIC [2, 20] | MIC [2, 21] | SMILES | further results
 |  |  |  |  |  |  |  |  |  |  |  |  |  |  |  |  |  |  |  | CO/N=C(\C(=O)N[C@@H]1C(=O)N2C(C(=O)[O-])=C(C[N+]3(C)CCCC3)CS[C@H]12)c1csc(N)n1 [Cefepime, cefepime] | MIC [1]: 256 µg/mL; MIC ([1]; Strain 1, read-out: MIC): 16 µg/mL; MIC ([1]; Strain 2, read-out: MIC): 4 µg/mL; MIC ([1]; Strain 3, read-out: MIC): 8 µg/mL; MIC ([1]; Strain 4, read-out: MIC): 8 µg/mL; MIC ([1]; Strain 5, read-out: MIC): 32 µg/mL; MIC ([1]; Strain 6, read-out: MIC): 1 µg/mL; MIC ([1]; Strain 7, read-out: MIC): 16 µg/mL; MIC ([1]; Strain 8, read-out: MIC): 4 µg/mL; MIC ([1]; Strain 9, read-out: MIC): 32 µg/mL; MIC ([1]; range over 10 P. aeruginosa strains, read-out: MICs of each agent alone): 1 to 256 µg/mL
2 µg/mL | 1 µg/mL | 1 µg/mL | 1 µg/mL | 2 µg/mL | 1 µg/mL | 2 µg/mL | 2 µg/mL | 1 µg/mL | 1 µg/mL | 2 µg/mL | 1 µg/mL | 2 µg/mL | 1 µg/mL | 1 µg/mL | 2 µg/mL | 2 µg/mL | 2 µg/mL | 1 µg/mL | 0.5 µg/mL | Nc1nc(/C(=N/O)C(=O)N[C@@H]2C(=O)N3C(C(=O)O)=C(/C=C4\CCN([C@@H]5CCNC5)C4=O)CS[C@H]23)ns1 [Ceftobiprole, ceftobiprole] | MIC [2, 22]: 1 µg/mL; MIC [2, 23]: 1 µg/mL; MIC [2, 24]: 2 µg/mL; MIC [2, 25]: 2 µg/mL; MIC [2, 26]: 0.5 µg/mL; MIC [2, 27]: 0.5 to 2 µg/mL
0.5 µg/mL | 0.5 µg/mL | 0.5 µg/mL | 0.5 µg/mL | 0.25 µg/mL | 0.5 µg/mL | 1 µg/mL | 0.5 µg/mL | 0.5 µg/mL | 0.5 µg/mL | 0.5 µg/mL | 0.5 µg/mL | 0.5 µg/mL | 1 µg/mL | 0.5 µg/mL | 0.5 µg/mL | 1 µg/mL | 0.5 µg/mL | 4 µg/mL | 2 µg/mL | CCCCCCCCCC(=O)N[C@@H](Cc1c[nH]c2ccccc12)C(=O)N[C@H](CC(N)=O)C(=O)N[C@@H](CC(=O)O)C(=O)N[C@@H]1C(=O)NCC(=O)N[C@@H](CCCN)C(=O)N[C@@H](CC(=O)O)C(=O)N[C@H](C)C(=O)N[C@@H](CC(=O)O)C(=O)NCC(=O)N[C@H](CO)C(=O)N[C@@H]([C@H](C)CC(=O)O)C(=O)N[C@@H](CC(=O)c2ccccc2N)C(=O)O[C@@H]1C [Daptomycin, daptomycin] | MIC [2, 22]: 0.5 µg/mL; MIC [2, 23]: 0.25 µg/mL; MIC [2, 24]: 0.5 µg/mL; MIC [2, 25]: 0.5 µg/mL; MIC [2, 26]: 0.25 µg/mL; MIC [2, 27]: 0.25 to 4 µg/mL
